# According to patent US5059612A, “Anti-dementia drug” (priority 1989, dated 1991):
# Read-outs that look alike come from different tables or passages of the source.
# Columns and labels:
# [1] = mouse acute toxicity test of rolipram; settings: in vivo, read-out: ED50 Value (acute toxicity)
# From the text: (§1) The results of mouse acute toxicity test of rolipram are as follows.
# mouse = mouse acute toxicity test of rolipram; settings: in vivo
# From the text: as §1
# [2] = system: mouse in oxygen-short state; assay: Activity on survival time of mouse in oxygen-short state; type: in vivo; settings: for Survival Time: 30 minutes before carbon dioxide, Control 195.8 ± 3.7
# Protocol: Activity on survival time of mouse in oxygen-short state
# Mice were put in a plastic box of 150 cm each in length, width and height, and carbon dioxide was injected from a lower inlet at a rate of 500 ml/min. The period from the start of injection to the respiratory standstill of mice was counted as the survival time. (±) Rolipram, (+) rolipram, and (-) rolipram were all intraperitoneally administered to mice 30 minutes before carbon dioxide was loaded.
# [3] = system: space recognition disorders induced by scopolamine; assay: Test on memory and study of rat using radial maize (scopolamine-induced space recognition disorder); type: in vivo
# From the text: Test on memory and study of rat using radial maize
# Rats under feed control were put at the central platform (diameter: 25 cm) of an 8-way radial maize (length and width of arm: 48 cm and 10 cm, 40 cm, height from the ground) and trained until they could efficiently take the feed put on the tip of the arm. Numbers of correct choices for the arms where the rats reached for the first time, number of incorrect choices for the arms where the rats reached two or more times and running time until completion of the session were measured for 10 minutes at maximum. When the results with not less than 7 correct choices were shown in 3 continuous sessions it was estimated that acquirement of space recognition was completed. Space recognition disorder was induced in the rats by administering 0.5 mg/kg of scopolamine (i.p., 30 minutes before the session) to study each activity of (±) rolipram, (+) rolipram and (-) rolipram (all administered p.o., 60 minutes before the session).
# [4] = system: memory and learning disorders induced by scopolamine; assay: 3-panel runway device: activity against memory and learning disorders induced by scopolamine; type: in vivo, rat
# Protocol: A 3-panel runway device (length: 175 cm, width: 36 cm and height: 25 cm) comprises a start box, four gateways equipped with three-panel gates and a goal box in which feed are put as the reward. The panel gates were designed so that only one of three panel gates in each gateway might be passable. Training of hungry rats to go out of the start box, reach the goal box and take the feed was made by continuous 6 sessions in 2 minute intervals. The training was carried out every day with the passable panel gate being varied every day. In the test, (1) time taken for the rat to reach the goal box and take the feed after it left the start box, and (2) the number of incorrect choices that the rat made trying to pass the impassable gate were recorded and measured in each session. Rats satisfying for consecutive 3 days the criterion that the total time for 6 sessions in one day was within 60 seconds, the total number of incorrect choices was under 12 and the number of incorrect responses in sessions 2 to 6 was not greater than 8 were estimated to have completely learned. The rats are used for the following test.
# [5] = system: cerebral ischemia-induced learning and memory disorders; assay: 3-panel runway device: effect on cerebral ischemia-induced learning and memory disorders; type: in vivo, rat; settings: for number of incorrect responses, Session 1 / number of incorrect responses, Session 2 / number of incorrect responses, Session 3 / number of incorrect responses, Session 4 / number of incorrect responses, Session 5 / number of incorrect responses, Session 6: cerebral ischemia; for minimal effective dose: ip, i.p., read-out: dose improving the disorders induced by cerebral ischemia
# Protocol: A 3-panel runway device (length: 175 cm, width: 36 cm and height: 25 cm) comprises a start box, four gateways equipped with three-panel gates and a goal box in which feed are put as the reward. The panel gates were designed so that only one of three panel gates in each gateway might be passable. Training of hungry rats to go out of the start box, reach the goal box and take the feed was made by continuous 6 sessions in 2 minute intervals. The training was carried out every day with the passable panel gate being varied every day. […] The rats are used for the following test. According to the method of Pulsinelli et al., the both vertebral arteries of rat were burnt and cut under anesthesia with pentobarbital. After 24 hours, the whole carotid artery on both sides was blocked for 5 minutes under no anesthesia.
# [6] = system: memory and learning deficits; assay: overall conclusion from the experimental results using mice and rats; type: in vivo
# [7] = 0.02 mg/kg p.o., 60 minutes before session, + scopolamine 0.5 mg/kg i.p.
# [8] = 0.1 mg/kg i.p. + scopolamine 0.56 mg/kg
# [9] = 10 mg/kg p.o., 60 minutes before session, + scopolamine 0.5 mg/kg i.p.
# [10] = 1 mg/kg i.p. + scopolamine 0.56 mg/kg
# [11] = 0.01 mg/kg p.o., 60 minutes before session, + scopolamine 0.5 mg/kg i.p.
# [12] = 0.032 mg/kg i.p. + scopolamine 0.56 mg/kg
# [13] = scopolamine alone 0.56 mg/kg i.p.
structure (smiles),measurement,setting,value
COc1ccc(C2CNC(=O)C2)cc1OC1CCCC1 (racemic) [(±) Rolipram],LD50,[1]; ip,1500 mg/kg
same,LD50,[1]; po,4000 mg/kg
same,safety,mouse,highly safe
same,Survival Time,[2]; 1.0 mg/kg i.p.,220.3 ± 6.9 s
same,minimal effective dose,"[2]; Mus musculus, ip, mouse, i.p., read-out: dose showing the action of prolonging the survival time",1 mg/kg
same,Number of Correct Choice,[3]; [7],6.9 ± 0.2
same,Number of Incorrect Choice,[3]; [7],2.3 ± 1.1
same,minimal effective dose,"[3]; Rattus norvegicus, po, rat, p.o., read-out: dose showing the activity of improving space recognition disorders induced by scopolamine",0.02 mg/kg
same,"number of incorrect responses, Session 1",[4]; [8],5.67
same,"number of incorrect responses, Session 2",[4]; [8],3.00
same,"number of incorrect responses, Session 3",[4]; [8],1.67
same,"number of incorrect responses, Session 4",[4]; [8],1.00
same,"number of incorrect responses, Session 5",[4]; [8],1.00
same,"number of incorrect responses, Session 6",[4]; [8],1.17
same,minimal effective dose,"[4]; Rattus norvegicus, ip, rat, i.p., read-out: dose inhibiting the increase in the number of incorrect responses induced by scopolamine",0.1 mg/kg
same,"number of incorrect responses, Session 1",[5]; 0.1 mg/kg i.p.,4.25
same,"number of incorrect responses, Session 2",[5]; 0.1 mg/kg i.p.,3.00
same,"number of incorrect responses, Session 3",[5]; 0.1 mg/kg i.p.,2.88
same,"number of incorrect responses, Session 4",[5]; 0.1 mg/kg i.p.,1.88
same,"number of incorrect responses, Session 5",[5]; 0.1 mg/kg i.p.,1.38
same,"number of incorrect responses, Session 6",[5]; 0.1 mg/kg i.p.,1.13
same,minimal effective dose,[5]; rat,0.1 mg/kg
same,activity of improving memory and learning deficits,[6],showed the activity of improving memory and learning deficits
same,potency order in improving memory and learning deficits,[6],"more potent order of (-) rolipram, (±) rolipram and (+) rolipram"
"COc1ccc(C2CNC(=O)C2)cc1OC1CCCC1 (single isomer, unassigned; (+)) [(+) Rolipram]",LD50,[1]; ip,> 2300 mg/kg
same,LD50,[1]; po,> 4000 mg/kg
same,safety,mouse,highly safe
same,Survival Time,[2]; 3.0 mg/kg i.p.,217.2 ± 5.3 s
same,dose showing the action of prolonging the survival time,"[2]; mouse, i.p.",3.0 mg/kg
same,Number of Correct Choice,[3]; [9],7.2 ± 0.3
same,Number of Incorrect Choice,[3]; [9],2.3 ± 1.6
same,dose showing the activity of improving space recognition disorders induced by scopolamine,"[3]; rat, p.o.",10 mg/kg
same,"number of incorrect responses, Session 1",[4]; [10],4.00
same,"number of incorrect responses, Session 2",[4]; [10],4.17
same,"number of incorrect responses, Session 3",[4]; [10],3.00
same,"number of incorrect responses, Session 4",[4]; [10],2.00
same,"number of incorrect responses, Session 5",[4]; [10],1.83
same,"number of incorrect responses, Session 6",[4]; [10],1.67
same,dose inhibiting the increase in the number of incorrect responses induced by scopolamine,"[4]; rat, i.p.",1 mg/kg
same,"number of incorrect responses, Session 1",[5]; 1 mg/kg i.p.,5.33
same,"number of incorrect responses, Session 2",[5]; 1 mg/kg i.p.,3.67
same,"number of incorrect responses, Session 3",[5]; 1 mg/kg i.p.,2.00
same,"number of incorrect responses, Session 4",[5]; 1 mg/kg i.p.,2.83
same,"number of incorrect responses, Session 5",[5]; 1 mg/kg i.p.,1.67
same,"number of incorrect responses, Session 6",[5]; 1 mg/kg i.p.,1.50
same,improvement of the disorders induced by cerebral ischemia,"[5]; rat, 1 mg/kg i.p.",no improvement
same,activity of improving memory and learning deficits,[6],showed the activity of improving memory and learning deficits
same,potency order in improving memory and learning deficits,[6],"more potent order of (-) rolipram, (±) rolipram and (+) rolipram"
"COc1ccc(C2CNC(=O)C2)cc1OC1CCCC1 (single isomer, unassigned; (-)) [(-) Rolipram]",safety,mouse,highly safe
same,Survival Time,[2]; 0.3 mg/kg i.p.,219.8 ± 6.3 s
same,dose showing the action of prolonging the survival time,"[2]; mouse, i.p.",0.3 mg/kg
same,Number of Correct Choice,[3]; [11],6.9 ± 0.3
same,Number of Incorrect Choice,[3]; [11],3.2 ± 1.1
same,dose showing the activity of improving space recognition disorders induced by scopolamine,"[3]; rat, p.o.",0.01 mg/kg
same,"number of incorrect responses, Session 1",[4]; [12],4.50
same,"number of incorrect responses, Session 2",[4]; [12],2.67
same,"number of incorrect responses, Session 3",[4]; [12],1.50
same,"number of incorrect responses, Session 4",[4]; [12],1.50
same,"number of incorrect responses, Session 5",[4]; [12],1.17
same,"number of incorrect responses, Session 6",[4]; [12],0.50
same,dose inhibiting the increase in the number of incorrect responses induced by scopolamine,"[4]; rat, i.p.",0.032 mg/kg
same,"number of incorrect responses, Session 1",[5]; 0.032 mg/kg i.p.,5.50
same,"number of incorrect responses, Session 2",[5]; 0.032 mg/kg i.p.,2.00
same,"number of incorrect responses, Session 3",[5]; 0.032 mg/kg i.p.,2.00
same,"number of incorrect responses, Session 4",[5]; 0.032 mg/kg i.p.,1.33
same,"number of incorrect responses, Session 5",[5]; 0.032 mg/kg i.p.,1.00
same,"number of incorrect responses, Session 6",[5]; 0.032 mg/kg i.p.,0.83
same,minimal effective dose,[5]; rat,0.032 mg/kg
same,activity of improving memory and learning deficits,[6],showed the activity of improving memory and learning deficits
same,potency order in improving memory and learning deficits,[6],"more potent order of (-) rolipram, (±) rolipram and (+) rolipram"
"CN1[C@@H]2C[C@@H](OC(=O)[C@H](CO)c3ccccc3)C[C@H]1[C@@H]1O[C@@H]12 [Scopolamine, scopolamine]",Number of Incorrect Choice,"[3]; scopolamine alone 0.5 mg/kg i.p., Control 0.3 ± 0.1",7.1 ± 0.9
same,Number of Correct Choice,"[3]; scopolamine alone 0.5 mg/kg i.p., Control 7.9 ± 0.2",5.9 ± 0.2
same,"number of incorrect responses, Session 1",[4]; [13],6.21
same,"number of incorrect responses, Session 2",[4]; [13],4.74
same,"number of incorrect responses, Session 3",[4]; [13],3.24
same,"number of incorrect responses, Session 4",[4]; [13],3.11
same,"number of incorrect responses, Session 5",[4]; [13],2.68
same,"number of incorrect responses, Session 6",[4]; [13],2.32
